# Results: patent US20260327191A1, “GSK3a INHIBITORS AND METHODS OF USE THEREOF” (Blueprint Medicines Corporation, priority 2023, published 2026)
# Counter-ions that a name gives are not always drawn.
# Columns and labels:
# GSK3α knockout mice = details: blockade of autophagy and mTOR pathway activation; cited from earlier work
# GSK3α or GSK3B = test: Measured Km for ATP in the GSK3 in vitro enzymatic activity assay; type: biochemical, human; details: role: substrate; 100 mM HEPES pH 7.5, 10 mM MgCl2; 1.0 μM peptide substrate (5-FAM-KRREILSRRPpSYR-COOH); 25° C.
# Procedure: Full length human GSK3α or GSK3B expressed as N-terminal GST fusion proteins in baculovirus host were purchased from Carna Biosciences (Japan). The kinase was pre-incubated with ATP (adenosine-5′-triphosphate) for 45 min, then incubated with tested compounds for another 45 min in assay buffer that contains 100 mM HEPES (N-2-hydroxyethylpiperazine-N′-2-ethanesulfonic acid), pH 7.5, 10 mM MgCl2, 1.0 mM DTT, and 0.015% Briji-35. […] Percent inhibition was plotted against compound concentration to generate 10-point dose response curve with 3-fold serial dilution starting from 10 μM. IC50 value was determined from the 4-parameter logistic curve fitting.
# GSK3B [1] = biological target: T1, GSK3B (Homo sapiens, UniProt P49841); test: NanoBRET cellular target engagement assay, Nanoluc-GSK3B in HEK293 cells; type: cell-based; design: expressed in transfected cells; details: NanoBRET GSK3β IC50, HEK293 cells, tracer K-8, 2 hours, 37° C
# GSK3A = biological target: T2, GSK3A (Homo sapiens, UniProt P49840); test: NanoBRET cellular target engagement assay, Nanoluc-GSK3A in HEK293 cells; type: cell-based; details: NanoBRET GSK3α IC50, HEK293 cells, tracer K-8, 2 hours, 37° C
# T2 construct: expressed in transfected cells
# GSK3B [2] = biological target: T1, GSK3B; test: In vitro enzymatic activity assay, GSK3β; type: biochemical; design: Full length human GSK3α or GSK3B expressed as N-terminal GST fusion proteins; GST (N); purchased Carna Biosciences (Japan); host or cells: baculovirus host; details: 1.0 mM ATP, 1.0 μM peptide substrate, 120 min, 25° C, read-out: Enzyme GSK3β (IC50)
# human GSK3α = biological target: T3, human GSK3α (Homo sapiens, UniProt P49840); test: In vitro enzymatic activity assay, GSK3α; type: biochemical; details: 1.0 mM ATP, 1.0 μM peptide substrate, 120 min, 25° C, read-out: Enzyme GSK3α (IC50)
# T3 construct: Full length human GSK3α or GSK3B expressed as N-terminal GST fusion proteins; GST (N); purchased Carna Biosciences (Japan); host or cells: baculovirus host
# T3 sequence (P49840 whole entry, the tested form may be a part): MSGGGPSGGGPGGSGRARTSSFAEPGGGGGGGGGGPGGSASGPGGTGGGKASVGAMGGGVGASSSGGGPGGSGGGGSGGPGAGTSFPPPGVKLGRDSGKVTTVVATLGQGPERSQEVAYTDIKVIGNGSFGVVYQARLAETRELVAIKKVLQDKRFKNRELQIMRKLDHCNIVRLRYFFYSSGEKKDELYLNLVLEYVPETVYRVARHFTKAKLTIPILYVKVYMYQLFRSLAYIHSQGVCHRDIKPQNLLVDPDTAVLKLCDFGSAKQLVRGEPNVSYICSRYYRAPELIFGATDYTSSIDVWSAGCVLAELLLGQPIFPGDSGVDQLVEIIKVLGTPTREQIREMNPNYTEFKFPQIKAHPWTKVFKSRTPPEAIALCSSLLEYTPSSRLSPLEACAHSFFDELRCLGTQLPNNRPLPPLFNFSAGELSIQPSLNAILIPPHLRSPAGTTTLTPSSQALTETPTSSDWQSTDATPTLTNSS
# T2 sequence (P49840 whole entry): as the sequence (P49840 whole entry, the tested form may be a part) above
# T1 sequence (P49841 whole entry): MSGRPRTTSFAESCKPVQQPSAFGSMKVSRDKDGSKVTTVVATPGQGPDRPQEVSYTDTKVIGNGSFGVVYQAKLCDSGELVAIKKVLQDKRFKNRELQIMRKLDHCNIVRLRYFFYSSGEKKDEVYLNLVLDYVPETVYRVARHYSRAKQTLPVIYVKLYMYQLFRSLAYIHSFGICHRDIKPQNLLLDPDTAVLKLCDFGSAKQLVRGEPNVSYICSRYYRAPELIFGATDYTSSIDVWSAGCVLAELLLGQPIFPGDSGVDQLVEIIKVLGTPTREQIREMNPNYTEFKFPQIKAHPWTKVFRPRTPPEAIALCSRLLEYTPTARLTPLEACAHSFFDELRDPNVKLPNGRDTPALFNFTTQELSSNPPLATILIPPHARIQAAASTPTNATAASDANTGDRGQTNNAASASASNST
Compound,reversal of mild aging phenotypes of GSK3α knockout mice (GSK3α knockout mice),Km (GSK3α or GSK3B) [µM],IC50 (GSK3B [1]) [nM],IC50 (GSK3A) [nM],IC50 (GSK3B [2]) [nM],IC50 (human GSK3α) [nM]
CO[C@H]1C[C@@H]2CC[C@@H](C)[C@@](O)(O2)C(=O)C(=O)N2CCCC[C@H]2C(=O)O[C@H]([C@H](C)C[C@@H]2CC[C@@H](OCCO)[C@H](OC)C2)CC(=O)[C@H](C)/C=C(\C)[C@@H](O)[C@@H](OC)C(=O)[C@H](C)C[C@H](C)/C=C/C=C/C=C/1C [everolimus],could be reversed,–,–,–,–,–
"Nc1ncnc2c1ncn2[C@@H]1O[C@H](COP(=O)(O)OP(=O)(O)OP(=O)(O)O)[C@@H](O)[C@H]1O [ATP, adenosine-5′-triphosphate]",–,10 to 15,–,–,–,–
"Cc1cc(F)cc(C)c1-n1cnc(N)c(C(=O)Nc2cncc([C@H]3CCCCN3)c2)c1=O [Example 161, (R)-4-amino-1-(4-fluoro-2,6-dimethylphenyl)-6-oxo-N-(5-(piperidin-2-yl)pyridin-3-yl)-1,6-dihydropyrimidine-5-carboxamide trifluoroacetate]",–,–,287,3,379,7.2
"C#CCC(N)c1cncc(NC(=O)c2c(N)ncn(-c3c(Cl)cc(OCC)cc3Cl)c2=O)c1 (single isomer, unassigned) [Example 150, (R)-4-amino-N-(5-(1-aminobut-3-yn-1-yl)pyridin-3-yl)-1-(2,6-dichloro-4-ethoxyphenyl)-6-oxo-1,6-dihydropyrimidine-5-carboxamide or (S)-4-amino-N-(5-(1-aminobut-3-yn-1-yl)pyridin-3-yl)-1-(2,6-dichloro-4-ethoxyphenyl)-6-oxo-1,6-dihydropyrimidine-5-carboxamide]",–,–,49.5,1,44.2,1.1
"Nc1ncn(-c2c(Cl)cncc2Cl)c(=O)c1C(=O)Nc1cncc([C@H]2CCCCN2)c1 [Example 152, (R)-4-amino-1-(3,5-dichloropyridin-4-yl)-6-oxo-N-(5-(piperidin-2-yl)pyridin-3-yl)-1,6-dihydropyrimidine-5-carboxamide]",–,–,174,2.4,120,2.7
"Nc1ncn(-c2c(Cl)cc(C(F)(F)F)cc2Cl)c(=O)c1C(=O)Nc1cncc([C@@H]2CCCCN2)c1 [Example 119, (S)-4-amino-1-(2,6-dichloro-4-(trifluoromethyl)phenyl)-6-oxo-N-(5-(piperidin-2-yl)pyridin-3-yl)-1,6-dihydropyrimidine-5-carboxamide]",–,–,502,8.1,414,8.1
